{"source": "paper PMC7946667", "about": "(Cancer Chemotherapy and Pharmacology, 2021)", "key": {"[1]": {"system": "CYP2C9", "conditions": "for AUC0-inf, adjusted geometric mean / Cmax, adjusted geometric mean: linear mixed effects model; for AUC0–144 h / Cmax: patient plasma, geometric mean (CV%); for classification as CYP2C9 inhibitor: based on S-warfarin AUC increase, ceritinib 750 mg QD"}, "[2]": {"system": "CYP2C8", "conditions": "cited from earlier work"}, "[3]": {"assay": "Safety and tolerability (adverse events) of ceritinib 750 mg QD in patients", "experimental": "(§1) Adverse events (AEs) were coded using the Medical Dictionary for Regulatory Activities version 20.1 and were graded using Common Terminology Criteria for Adverse Events version 4.03. All patients were followed up for AEs and serious AEs (SAEs) for at least 30 days following the last dose of study treatment at the end of treatment phase. Tumor evaluation was performed at screening visit within 28 days prior to study treatment (Day 1 of DDI phase) using contrast enhanced computed tomography (or magnetic resonance imaging). Assessments of tumor response were performed every two cycles (i.e., every 6 weeks) through Cycle 9. ORR and DOR by investigator assessment was reported per Response Evaluation Criteria in Solid Tumors (RECIST) 1.1."}, "[4]": {"system": "CYP2C9", "conditions": "cited from earlier work"}, "[5]": {"system": "CYP2A6", "conditions": "HLM, of more minor clinical relevance; cited from earlier work"}, "[6]": {"system": "advanced ALK-positive tumors", "assay": "Antitumor activity (best overall response, ORR, DCR per RECIST 1.1, investigator assessment)", "assay_type": "in vivo, human", "experimental": "as §1"}, "[7]": {"conditions": "cited from earlier work"}, "[8]": {"system": "CYP2B6", "conditions": "cited from earlier work"}, "[9]": {"system": "CYP1A2", "conditions": "cited from earlier work"}, "[10]": {"system": "CYP3A", "assay": "Clinical DDI study: pharmacokinetics of midazolam (CYP3A probe substrate) and 1′-hydroxymidazolam with and without ceritinib", "assay_type": "in vivo, human", "conditions": "based on midazolam AUC increase, ceritinib 750 mg QD", "from_the_text": "This was a multicenter, open-label, single sequence, crossover phase I study (ClinicalTrials.gov identifier: NCT02422589) and was divided into two phases, DDI phase and post-DDI treatment phase (Fig. 1). Patients were recruited from 10 clinical centers located across 4 countries, namely Spain (n = 3), United States (n = 3), Italy (n = 3), and Denmark (n = 1).\nTo assess the pharmacokinetics of probe substrates, blood samples were obtained on Days 1 and 28 at pre-dose and at 0.25, 0.5, 1, 2, 3, 4, 6, 8, 10, 24, 48, 72, 96, 120, and 144 h post-dose. […] A blood sample for CYP2C9 genotyping was collected on Day 1 of the DDI phase from all participating patients. Patients were categorized as CYP2C9 poor, intermediate, or extensive metabolizers based on the genotype testing results. This assessment was of exploratory nature and was not used as inclusion/exclusion criteria in the study.\nA linear mixed-effects model was fitted to the log-transformed primary PK parameters (Cmax, AUC0-144 h, and AUC0-inf) and included a fixed effect for treatment and a random effect for subject."}, "[11]": {"system": "CYP3A4/5", "conditions": "cited from earlier work"}, "[12]": {"system": "CYP2C19", "conditions": "cited from earlier work"}, "[13]": {"system": "CYP2D6", "conditions": "cited from earlier work"}, "[14]": {"system": "CYP3A", "conditions": "in vitro HLM studies; cited from earlier work"}, "[15]": {"conditions": "treatment warfarin + ceritinib 750 mg QD for 3 weeks"}, "[16]": {"conditions": "warfarin 10 mg single oral dose + ceritinib 750 mg QD at steady state (Day 28)"}, "[17]": {"conditions": "warfarin 10 mg single oral dose alone (Day 1)"}, "[18]": {"conditions": "HLM, read-out: IC50, reversible inhibition"}, "[19]": {"conditions": "HLM, read-out: Ki, reversible inhibition"}, "[20]": {"conditions": "ceritinib concentrations up to 50 µM"}, "[21]": {"conditions": "All Patients N=33, ceritinib 750 mg QD"}, "[22]": {"conditions": "NSCLC N=19, ceritinib 750 mg QD"}, "[23]": {"conditions": "Other tumors N=14, ceritinib 750 mg QD"}, "[24]": {"conditions": "HLM, of more minor clinical relevance"}}, "note": "Entries after “also recorded” stand apart in the source; their conditions may differ. Where two headings read alike, the source gives them in different places."}
{"compound": "CC(=O)C[C@H](c1ccccc1)c1c(O)c2ccccc2oc1=O", "note": "[R-warfarin]", "values": [{"measurement": "AUC0-inf, adjusted geometric mean", "setting": "[1]; [15]", "value": 38900, "unit": "ng·h/mL"}, {"measurement": "Cmax, adjusted geometric mean", "setting": "[1]; [15]", "value": 616, "unit": "ng/mL"}, {"measurement": "AUC0-inf, adjusted geometric mean", "setting": "[1]; treatment warfarin alone", "value": 36300, "unit": "ng·h/mL"}, {"measurement": "Cmax, adjusted geometric mean", "setting": "[1]; treatment warfarin alone", "value": 560, "unit": "ng/mL"}, {"measurement": "AUC0–144 h", "setting": "[1]; [16]", "value": "38,500 (34.9) h*ng/mL"}, {"measurement": "Cmax", "setting": "[1]; [16]", "value": "616 (23.6) ng/mL"}, {"measurement": "AUC0–144 h", "setting": "[1]; [17]", "value": "30,600 (39.0) h*ng/mL"}, {"measurement": "Cmax", "setting": "[1]; [17]", "value": "560 (34.2) ng/mL"}, {"measurement": "impact of ceritinib on R-warfarin pharmacokinetics", "setting": "[1]; warfarin + ceritinib vs warfarin alone", "value": "did not affect the pharmacokinetics of R-warfarin to a clinically significant extent; also recorded: negligible"}]}
{"compound": "CC(=O)C[C@@H](c1ccccc1)c1c(O)c2ccccc2oc1=O", "note": "[S-warfarin]", "values": [{"measurement": "reduction of S-warfarin CL/F", "setting": "[1]; co-administered with ceritinib vs warfarin alone", "value": "approximately 30%"}, {"measurement": "AUC0-inf, adjusted geometric mean", "setting": "[1]; [15]", "value": 32800, "unit": "ng·h/mL"}, {"measurement": "Cmax, adjusted geometric mean", "setting": "[1]; [15]", "value": 598, "unit": "ng/mL"}, {"measurement": "AUC0-inf, adjusted geometric mean", "setting": "[1]; treatment warfarin alone", "value": 21200, "unit": "ng·h/mL"}, {"measurement": "Cmax, adjusted geometric mean", "setting": "[1]; treatment warfarin alone", "value": 569, "unit": "ng/mL"}, {"measurement": "AUC0–144 h", "setting": "[1]; [16]", "value": "28,400 (36.0) h*ng/mL"}, {"measurement": "Cmax", "setting": "[1]; [16]", "value": "599 (27.5) ng/mL"}, {"measurement": "AUC0–144 h", "setting": "[1]; [17]", "value": "18,200 (46.6) h*ng/mL"}, {"measurement": "Cmax", "setting": "[1]; [17]", "value": "569 (34.9) ng/mL"}]}
{"compound": "Cc1cc(Nc2ncc(Cl)c(Nc3ccccc3S(=O)(=O)C(C)C)n2)c(OC(C)C)cc1C1CCNCC1", "note": "[ceritinib]", "values": [{"measurement": "inhibition at clinically relevant concentrations", "setting": "[2]", "value": "unlikely to inhibit"}, {"measurement": "deaths suspected to be treatment related", "setting": "[3]; all patients N=33", "value": "None"}, {"measurement": "patients who died during the study", "setting": "[3]; all patients N=33, cause study disease", "value": 8, "unit": "patients"}, {"measurement": "deaths during the on-treatment period", "setting": "[3]; within 30 days of last dose of ceritinib", "value": 4, "unit": "deaths"}, {"measurement": "IC50", "setting": "[4]; [18]", "value": 2000, "unit": "nM"}, {"measurement": "Ki", "setting": "[4]; [19]", "value": 240, "unit": "nM"}, {"measurement": "time-dependent inhibition", "setting": "[4]; [20]", "value": "no apparent time-dependent inhibition"}, {"measurement": "mode of inhibition of metabolism of diclofenac (CYP2C9 substrate)", "setting": "[4]; pooled HLMs", "value": "competitively inhibited"}, {"measurement": "reversible inhibition", "setting": "[5]", "value": "reversibly inhibits"}, {"measurement": "ORR", "setting": "[6]; 19 patients with NSCLC, 95% CI: 20.3, 66.5", "value": 42.1, "unit": "%"}, {"measurement": "DCR", "setting": "[6]; 19 patients with NSCLC, 95% CI: 38.4, 83.7", "value": 63.2, "unit": "%"}, {"measurement": "Best overall response Unknown", "setting": "[6]; [21]", "value": "6 (18.2) n (%)"}, {"measurement": "Complete response (CR)", "setting": "[6]; [21]", "value": "1 (3.0) n (%)"}, {"measurement": "Non-CR/Non-PD", "setting": "[6]; [21]", "value": "2 (6.1) n (%)"}, {"measurement": "Partial response (PR)", "setting": "[6]; [21]", "value": "8 (24.2) n (%)"}, {"measurement": "Progressive disease (PD)", "setting": "[6]; [21]", "value": "12 (36.4) n (%)"}, {"measurement": "Best overall response Unknown", "setting": "[6]; [22]", "value": "4 (21.1) n (%)"}, {"measurement": "Complete response (CR)", "setting": "[6]; [22]", "value": "1 (5.3) n (%)"}, {"measurement": "Non-CR/Non-PD", "setting": "[6]; [22]", "value": "2 (10.5) n (%)"}, {"measurement": "Partial response (PR)", "setting": "[6]; [22]", "value": "7 (36.8) n (%)"}, {"measurement": "Progressive disease (PD)", "setting": "[6]; [22]", "value": "3 (15.8) n (%)"}, {"measurement": "Best overall response Unknown", "setting": "[6]; [23]", "value": "2 (14.3) n (%)"}, {"measurement": "Complete response (CR)", "setting": "[6]; [23]", "value": "0 n (%)"}, {"measurement": "Non-CR/Non-PD", "setting": "[6]; [23]", "value": "0 n (%)"}, {"measurement": "Partial response (PR)", "setting": "[6]; [23]", "value": "1 (7.1) n (%)"}, {"measurement": "Progressive disease (PD)", "setting": "[6]; [23]", "value": "9 (64.3) n (%)"}, {"measurement": "ORR", "setting": "[6]; overall, all 33 patients, 95% CI: 13.3, 45.5", "value": 27.3, "unit": "%"}, {"measurement": "DCR", "setting": "[6]; overall, all 33 patients, 95% CI: 28.1, 63.6", "value": 45.5, "unit": "%"}, {"measurement": "Cmax at steady-state", "setting": "[7]; observed in earlier clinical trials", "value": 1010, "unit": "ng/mL"}, {"measurement": "Cmax", "setting": "[7]; observed in earlier clinical trials, read-out: Cmax at steady-state", "value": 1800, "unit": "nM"}, {"measurement": "time to steady-state", "setting": "[7]; repeat daily dosing", "value": "2–3 weeks"}, {"measurement": "classification as CYP2C9 inhibitor", "setting": "[1]", "value": "weak inhibitor of CYP2C9"}, {"measurement": "classification as CYP2C9 inhibitor", "setting": "[1]; listed as Ceritinib", "value": "weak CYP2C9 inhibitor"}, {"measurement": "reversible inhibition", "setting": "[8]; [24]", "value": "reversibly inhibits"}, {"measurement": "inhibition at clinically relevant concentrations", "setting": "[8]", "value": "unlikely to inhibit"}, {"measurement": "time-dependent inhibition", "setting": "[9]; [20]", "value": "no apparent time-dependent inhibition"}, {"measurement": "inhibition at clinically relevant concentrations", "setting": "[9]", "value": "unlikely to inhibit"}, {"measurement": "classification as CYP3A inhibitor", "setting": "[10]", "value": "strong inhibitor of CYP3A"}, {"measurement": "classification as CYP3A inhibitor", "setting": "[10]; listed as Ceritinib", "value": "strong CYP3A inhibitor"}, {"measurement": "IC50", "setting": "[11]; [18]", "value": 200, "unit": "nM"}, {"measurement": "Ki", "setting": "[11]; [19]", "value": 160, "unit": "nM"}, {"measurement": "mode of inhibition of metabolism of midazolam (CYP3A substrate)", "setting": "[11]; pooled HLMs", "value": "competitively inhibited"}, {"measurement": "inhibitor concentration associated with 50% maximal inactivation rate [Ki]", "setting": "[11]; time-dependent inhibition of CYP3A, HLM", "value": 1470, "unit": "nM"}, {"measurement": "inhibition at clinically relevant concentrations", "setting": "[12]", "value": "unlikely to inhibit"}, {"measurement": "reversible inhibition", "setting": "[13]; [24]", "value": "reversibly inhibits"}, {"measurement": "time-dependent inhibition", "setting": "[13]; [20]", "value": "no apparent time-dependent inhibition"}, {"measurement": "inhibition at clinically relevant concentrations", "setting": "[13]", "value": "unlikely to inhibit"}, {"measurement": "share of hepatic oxidative metabolism via CYP3A", "setting": "[14]", "value": "> 90", "unit": "%"}]}
